We go through four compounds from patent US8703811B2, “Small molecule inhibitors of Plasmodium falciparum dihydroorotate dehydrogenase” (Genzyme Corporation, priority 2008, dated 2014).

As a reminder, the microsomal CLint is a measure of how fast metabolising enzymes remove a compound, apart from limits set by blood flow. A lower microsomal CLint goes with slow turnover. Broadly, the IC50 is the concentration at which inhibition is half-maximal. The inhibition is the drop in the measured response relative to a control, in per cent.

Series [1] has as its system Renal Proximal Tubule Epithelial Cells. Kind of series: Renal Proximal Tubule Epithelial Cell Toxicity Screen. It counts as cell-based. In short, it runs like this: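 Normal renal epithelial cells seeded at 1.5×10^4 cells/mL, grown 24 h at 37 °C/5% CO2, then exposed to compounds for 96 h; a T=0 plate was read at dosing. Viability by Alamar Blue fluorescence after 4 h, with Tween 20 and DMSO wells as positive and negative controls.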

For series [2], the target named is Cytochrome P450 1A2 (Homo sapiens (Human), UniProt P05177). The format is in vitro ADME. From the text:
(§1) Rapid screening for cytochrome P450 inhibitors is part of the current paradigm for avoiding development of drugs likely to give clinical pharmacokinetic drug-drug interactions and associated toxicities. There are commercially available assays for such screenings. For example, BD Biosciences (http://www.bdbiosciences.com/index.shtml) provides a technical bulletin describing a detailed, step-by-step procedure for the performance of the high throughput cytochrome P450 inhibition testing method.

Series [3] has as its target Cytochrome P450 2C9 (Homo sapiens (Human), UniProt P11712). Kind of series: Cytochrome P450 inhibition, 2C9. It counts as in vitro ADME.
From the text: as §1

The target of series [4] is Cytochrome P450 2D6 (Homo sapiens (Human), UniProt P10635). Kind of series: Cytochrome P450 inhibition, 2D6. The format is in vitro ADME.
Chain of Cytochrome P450 2D6 (P10635 whole entry): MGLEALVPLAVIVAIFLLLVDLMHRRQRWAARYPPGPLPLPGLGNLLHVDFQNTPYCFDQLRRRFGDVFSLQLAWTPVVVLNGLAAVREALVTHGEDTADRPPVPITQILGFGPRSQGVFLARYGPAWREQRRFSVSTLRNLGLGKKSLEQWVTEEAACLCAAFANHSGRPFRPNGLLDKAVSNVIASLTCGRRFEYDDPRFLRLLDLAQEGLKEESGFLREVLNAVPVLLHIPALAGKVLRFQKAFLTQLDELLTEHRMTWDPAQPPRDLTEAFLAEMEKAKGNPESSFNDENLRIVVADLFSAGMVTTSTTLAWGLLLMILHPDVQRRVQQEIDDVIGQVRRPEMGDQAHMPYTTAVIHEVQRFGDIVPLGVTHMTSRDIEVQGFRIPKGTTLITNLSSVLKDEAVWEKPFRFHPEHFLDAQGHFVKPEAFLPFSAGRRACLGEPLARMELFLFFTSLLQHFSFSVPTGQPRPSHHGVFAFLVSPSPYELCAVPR
From the text: as §1

Series [5] addresses Cytochrome P450 3A4 (Homo sapiens (Human), UniProt P08684). Kind of series: Cytochrome P450 inhibition, 3A4. It counts as in vitro ADME.
From the text: as §1

Series [6] is described as follows: Hepatic clearance, human. The format is in vitro ADME. From the text:
Clearance of drug by the liver will depend on the rate of delivery of drug to the liver (the hepatic blood flow) and on the efficiency of removal of drug which is presented to it (the extraction ratio). The hepatic clearance of compounds can be determined by standard methods known in the art. Such methods are described in, for example, Naritomi, Y; Terashita, S; Kagayama, A; Sugiyama, Y. “Utility of Hepatocytes in Predicting Drug Metabolism: Comparison of Hepatic Intrinsic Clearance in Rats and Humans in Vivo and in Vitro.” 2003, 31 (5): pages 580-588.

For series [7], the target named is pbDHODH (Plasmodium berghei, UniProt A0A509AEH5). The series is described as follows: DCIP assay, pbDHODH. The format is biochemical, P. berghei. The settings on record: 200 μM L-DHO, 18 μM CoQD, 100 μM DCIP, 20 nM enzyme. From the text: (§2) Type 2 DHODH activity was monitored with either the direct assay measuring the formation of orotate or via a chromogen reduction assay using DCIP. Although the extinction coefficient and absorption wavelength are preferable for the chromogen reduction assay, the inorganic electron acceptor DCIP can be utilized by DHODH as the final electron acceptor in lieu of CoQn when the endogenous substrate is at a low concentration. As such, the direct assay was used to measure the binding affinity of pfDHODH to CoQD and L-DHO. The enzymatic reaction was performed by varying the L-DHO concentration (1-400 μM) or CoQD concentration (1-200 μM) while keeping the other substrate constant and in excess. The formation of orotate was measured continuously at 296 nm (ε296=4.3 mM^−1 cm^−1). Inhibition of DHODH by small molecules was evaluated using the chromogen based assay with a final substrate concentration of 200 μM L-DHO, 18 μM CoQD, and 100 μM DCIP, unless otherwise noted. The reduction of DCIP was monitored at 600 nm (ε600=18.8 mM^−1 cm^−1).
Chain of pbDHODH (A0A509AEH5 1-517): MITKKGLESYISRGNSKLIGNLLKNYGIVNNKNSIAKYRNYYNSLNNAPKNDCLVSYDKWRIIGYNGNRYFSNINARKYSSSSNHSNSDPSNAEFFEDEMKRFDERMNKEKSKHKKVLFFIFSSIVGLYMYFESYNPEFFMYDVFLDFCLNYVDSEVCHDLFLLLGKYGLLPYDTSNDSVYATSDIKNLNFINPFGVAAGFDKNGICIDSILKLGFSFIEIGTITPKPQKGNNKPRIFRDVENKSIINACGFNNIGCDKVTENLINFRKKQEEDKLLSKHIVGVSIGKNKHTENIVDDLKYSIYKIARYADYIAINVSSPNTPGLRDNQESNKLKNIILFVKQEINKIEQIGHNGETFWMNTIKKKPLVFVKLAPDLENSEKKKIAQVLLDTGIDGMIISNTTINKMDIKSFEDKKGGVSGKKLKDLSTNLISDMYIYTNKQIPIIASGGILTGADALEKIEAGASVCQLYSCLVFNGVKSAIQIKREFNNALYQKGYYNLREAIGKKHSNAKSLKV
(§3) Substrate specificity and enzyme inhibition data was analyzed with GraphPad Prism Version 4 for Windows (GraphPad Software). Kinetic constants were calculated by non-linear regression fitting of the data to the Michaelis-Menten equation [36]. IC50 values were determined by non-linear regression fitting of the data to Equation 1: […]

The target in series [8] is pvDHODH (Plasmodium vivax, UniProt A5K1N1). Kind of series: DCIP assay, pvDHODH. The format is biochemical, P. vivax. The settings on record: 200 μM L-DHO, 18 μM CoQD, 100 μM DCIP, 20 nM enzyme.
Chain of pvDHODH (A5K1N1 1-572): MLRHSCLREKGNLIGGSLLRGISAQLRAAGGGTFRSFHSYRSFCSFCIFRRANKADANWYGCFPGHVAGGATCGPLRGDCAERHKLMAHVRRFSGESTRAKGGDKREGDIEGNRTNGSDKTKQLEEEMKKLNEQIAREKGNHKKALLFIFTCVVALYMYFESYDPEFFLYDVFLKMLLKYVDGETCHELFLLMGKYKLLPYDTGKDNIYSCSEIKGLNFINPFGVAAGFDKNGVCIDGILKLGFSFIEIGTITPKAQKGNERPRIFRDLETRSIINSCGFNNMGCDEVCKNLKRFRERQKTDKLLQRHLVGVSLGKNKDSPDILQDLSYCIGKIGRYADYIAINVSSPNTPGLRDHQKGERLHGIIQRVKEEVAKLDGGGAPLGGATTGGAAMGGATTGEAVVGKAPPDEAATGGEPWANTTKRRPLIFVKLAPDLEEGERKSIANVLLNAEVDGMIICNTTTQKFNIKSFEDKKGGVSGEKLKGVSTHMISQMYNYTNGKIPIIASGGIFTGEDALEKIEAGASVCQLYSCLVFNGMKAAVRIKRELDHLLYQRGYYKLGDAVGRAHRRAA
From the text: as §2, §3

Series [9] concerns the target scDHODH (Saccharomyces cerevisiae (strain ATCC 204508 / S288c) (Baker's yeast), UniProt P28272). The series is described as follows: DCIP assay with fumarate, scDHODH. The settings on record: 115 μM fumarate in lieu of CoQD. It counts as biochemical.
For series [10], the system named is P. falciparum HB3. Kind of series: Inhibition of in vitro P. falciparum culture, [3H]-hypoxanthine uptake, HB3. The format is cell-based. The settings on record: Plasmodium falciparum, HB3, Erythrocyte; [3H]-hypoxanthine uptake by parasite infected erythrocytes; read-out: HB3 IC50. In short, it runs like this: (§4)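 Parasite growth inhibition measured as relative reduction of [3H]-hypoxanthine uptake in in vitro cultures. Values from non-linear regression fit, using relative growth velocity in place of product-formation rate.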

In series [11] the test system is P. falciparum D10. The series is described as follows: Inhibition of in vitro P. falciparum culture, [3H]-hypoxanthine uptake, D10. The conditions noted are these: Plasmodium falciparum, D10, Erythrocyte; [3H]-hypoxanthine uptake by parasite infected erythrocytes; read-out: D10 IC50. The format is cell-based. In short, it runs like this: as §4
Series [12] has as its system P. falciparum D10-scDHODH. Kind of series: Inhibition of transgenic D10-scDHODH parasites, [3H]-hypoxanthine uptake. It counts as cell-based. A digest of the protocol: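 P. falciparum D10 transfected with full-length scDHODH (no GFP tag) and kept under WR99210 selection. Growth inhibition measured as relative reduction of [3H]-hypoxanthine uptake, and data fitted by non-linear regression to relative growth velocity.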

The target of series [13] is pfDHODH (Plasmodium falciparum (isolate 3D7), UniProt Q08210). The series is described as follows: pfDHODH activity with FeCy as electron acceptor. The conditions noted are these: read-out: % Inhibition of Product Formation Rate with 50 μM Inhibitor, FeCy.
Chain of pfDHODH (Q08210 159-565 limits assumed): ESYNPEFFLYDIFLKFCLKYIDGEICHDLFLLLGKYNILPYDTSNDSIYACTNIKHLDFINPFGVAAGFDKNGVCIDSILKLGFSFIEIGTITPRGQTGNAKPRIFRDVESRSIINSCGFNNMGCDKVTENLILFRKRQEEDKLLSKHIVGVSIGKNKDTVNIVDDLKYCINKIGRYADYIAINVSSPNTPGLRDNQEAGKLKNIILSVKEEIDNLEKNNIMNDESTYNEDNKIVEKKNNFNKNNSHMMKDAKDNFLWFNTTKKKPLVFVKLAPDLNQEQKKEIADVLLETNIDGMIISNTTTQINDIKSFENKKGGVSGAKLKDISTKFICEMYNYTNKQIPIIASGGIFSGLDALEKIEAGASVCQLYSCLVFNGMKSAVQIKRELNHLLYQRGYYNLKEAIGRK
Description: Inhibitors of DHODH, as classified by the chromogen reduction assay, were also evaluated for activity using FeCy as an electron acceptor. A final concentration of 5-50 nM DHODH, 200 μM L-DHO and 100 μM FeCy in Buffer C was used in this assay. Both the reduction of FeCy and the formation of orotate was monitored at 420 nm (ε420=1 mM^−1 cm^−1) and 290 nm (ε280=2 mM^−1 cm^−1), respectively, noting that two molecules of FeCy are reduced for one molecule of L-DHO. As with the previous assays, the reaction was performed at 25° C. and initiated with the addition of enzyme.

Chain of Cytochrome P450 2C9 (P11712 whole entry): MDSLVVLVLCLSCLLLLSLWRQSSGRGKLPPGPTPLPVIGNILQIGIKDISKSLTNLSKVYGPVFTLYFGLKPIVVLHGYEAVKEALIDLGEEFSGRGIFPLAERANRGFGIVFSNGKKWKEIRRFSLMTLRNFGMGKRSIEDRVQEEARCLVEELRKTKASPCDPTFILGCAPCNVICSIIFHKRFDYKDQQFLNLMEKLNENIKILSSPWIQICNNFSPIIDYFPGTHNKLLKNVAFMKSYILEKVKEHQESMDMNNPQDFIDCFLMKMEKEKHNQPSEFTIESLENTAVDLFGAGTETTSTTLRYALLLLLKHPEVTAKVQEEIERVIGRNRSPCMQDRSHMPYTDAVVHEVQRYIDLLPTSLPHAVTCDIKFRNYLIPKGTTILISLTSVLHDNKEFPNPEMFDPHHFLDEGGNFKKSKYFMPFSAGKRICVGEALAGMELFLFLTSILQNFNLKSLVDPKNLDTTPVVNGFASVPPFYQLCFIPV
Chain of Cytochrome P450 1A2 (P05177 whole entry): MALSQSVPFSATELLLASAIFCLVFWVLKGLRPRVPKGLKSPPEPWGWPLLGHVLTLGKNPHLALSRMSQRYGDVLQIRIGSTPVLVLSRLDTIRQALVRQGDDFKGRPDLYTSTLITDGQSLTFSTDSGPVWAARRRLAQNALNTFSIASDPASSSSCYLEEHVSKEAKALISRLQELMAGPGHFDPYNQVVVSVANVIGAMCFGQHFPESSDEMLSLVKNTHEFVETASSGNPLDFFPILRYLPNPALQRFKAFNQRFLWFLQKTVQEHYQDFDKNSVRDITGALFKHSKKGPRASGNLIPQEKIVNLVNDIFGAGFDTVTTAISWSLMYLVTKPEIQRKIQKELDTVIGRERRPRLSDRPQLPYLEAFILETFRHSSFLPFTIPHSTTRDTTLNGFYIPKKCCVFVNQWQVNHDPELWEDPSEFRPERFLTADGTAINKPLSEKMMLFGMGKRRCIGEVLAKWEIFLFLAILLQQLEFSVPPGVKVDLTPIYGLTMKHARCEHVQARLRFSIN
Chain of Cytochrome P450 3A4 (P08684 whole entry): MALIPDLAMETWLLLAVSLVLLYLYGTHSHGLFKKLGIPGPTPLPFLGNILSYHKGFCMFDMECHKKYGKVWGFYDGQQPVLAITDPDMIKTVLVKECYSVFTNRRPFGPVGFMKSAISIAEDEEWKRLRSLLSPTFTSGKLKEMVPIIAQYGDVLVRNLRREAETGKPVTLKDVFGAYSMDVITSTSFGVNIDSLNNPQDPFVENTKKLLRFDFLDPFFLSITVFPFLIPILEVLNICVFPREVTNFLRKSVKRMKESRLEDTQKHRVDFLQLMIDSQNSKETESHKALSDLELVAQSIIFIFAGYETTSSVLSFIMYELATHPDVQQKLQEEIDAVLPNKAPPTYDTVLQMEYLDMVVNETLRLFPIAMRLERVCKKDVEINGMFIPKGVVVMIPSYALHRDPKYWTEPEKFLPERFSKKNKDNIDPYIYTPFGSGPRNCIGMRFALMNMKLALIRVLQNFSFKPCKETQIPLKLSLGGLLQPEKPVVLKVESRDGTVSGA
Chain of scDHODH (P28272 whole entry): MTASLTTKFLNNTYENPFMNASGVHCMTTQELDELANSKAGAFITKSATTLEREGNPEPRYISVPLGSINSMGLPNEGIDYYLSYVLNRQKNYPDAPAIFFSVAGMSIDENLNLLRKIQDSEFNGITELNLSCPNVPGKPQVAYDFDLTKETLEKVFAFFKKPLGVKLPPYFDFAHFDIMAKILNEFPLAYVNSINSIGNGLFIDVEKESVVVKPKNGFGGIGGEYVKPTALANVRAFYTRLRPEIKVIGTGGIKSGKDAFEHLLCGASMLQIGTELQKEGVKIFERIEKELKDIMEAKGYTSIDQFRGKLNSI

On to “5-(1H-indol-1-yl)-N-propylthiophene-2-carboxamide [Compound 7]”, for which, in [1] (4 days exposure, Alamar Blue, read-out: Kidney Epithelial LC50), the CC50 stood at 50000 nM.
`CCCNC(=O)c1ccc(-n2cnc3ccccc32)s1` [Compound 11, 5-(1H-benzo[d]imidazol-1-yl)-N-propylthiophene-2-carboxamide]: in series [2], the “Cytochrome P450 Inhibition, 1A2” value was above 5.0 in 1A2 μM. The “Cytochrome P450 Inhibition, 2C9” value in [3] is above 5.0 in 2C9 μM. Further, the “Cytochrome P450 Inhibition, 2D6” value in series [4] is above 5.0 in 2D6 μM. For the same compound, the “Cytochrome P450 Inhibition, 3A4” value in [5] was above 5.0 in 3A4 μM. The same compound registered an intrinsic clearance (microsomal CLint) in series [6] of 49 µL/min/mg.
Turning to `CCCNC(=O)c1ccc(-n2c(C)nc3ccccc32)s1` [Compound 12, 5-(2-methyl-1H-benzo[d]imidazol-1-yl)-N-propylthiophene-2-carboxamide], the “cytotoxicity in kidney epithelial cells” value in [1] was “No adverse cytotoxicity”. The “Cytochrome P450 Inhibition, 1A2” value in series [2] was above 5.0 in 1A2 μM. Moreover, the “Cytochrome P450 Inhibition, 2C9” value in series [3] is above 5.0 in 2C9 μM. For the same compound, the “Cytochrome P450 Inhibition, 2D6” value in series [4] is above 5.0 in 2D6 μM. Further, the “Cytochrome P450 Inhibition, 3A4” value in series [5] was above 5.0 in 3A4 μM. The compound also returned a microsomal CLint in series [6] of 33 µL/min/mg.
Regarding `CCCNC(=O)c1ccc(-n2c(C)cc3ccccc32)s1` [Compound 1, 5-(2-methyl-1H-indol-1-yl)-N-propylthiophene-2-carboxamide], the IC50 was 60 ± 7 nM in series [7]; 420 ± 20 nM in series [8]; above 10000 nM in series [9]; 470 nM in series [10]; 610 nM in [11]; above 10000 nM in [12] (Plasmodium falciparum, D10, read-out: D10-scDHODH IC50). For the same compound, in series [12] (dose-effect curves, FIG. 5), the “efficacy against D10-scDHODH strain compared to D10 parent strain” value is reported as “significantly reduced”. Also, the inhibition at 50 µM in series [13] came out at 31%.
